{
  "source": "patent US5110933A",
  "about": "“Salts of 3-azabicyclo[3.3.1]nonanes as antiarrhythmic agents, and precursors thereof” (Board of Regents of Oklahoma State University, priority 1990, dated 1992)",
  "key": {"[1]": {"system": "Sustained ventricular tachycardia induced by electrical pacing of infarcted dog heart", "assay": "Antiarrhythmic activity on sustained ventricular tachycardia induced by electrical pacing of infarcted dog heart", "assay_type": "in vivo", "settings": "for ability to reduce the rate of the induced VT or to eliminate the same: 3 mg/kg as well as 6 mg/kg", "text": "To illustrate the useful biological properties of the compounds described in this invention, selected derivatives were screened for antiarrhythmic activity using dog models. The clinically used agent lidocaine and 7-benzyl-3-thia-7-azabicyclo[3.3.1]nonane hydroperchlorate (48) [U.S. Pat. No. 4,581,361] were employed as standards as basis for comparison. A small infarction was created in an area of the dog heart and thereafter electrical pacing was initiated to generate a sustained ventricular tachycardia (VT). This irregular beating pattern of the heart results in a reduction of the pumping capability of the heart in a manner now accepted as resembling symptoms observed in humans during a heart attack (see: Scherlag, B. J. et. al., Am. J. Cardiol. 1983, 51, 207; Bailey, B. R. et. al., J. Med. Chem. 1984, 27, 759; Thompson, M. D. et. al., J. Med. Chem. 1987, 30, 780; U.S. Pat. No. 4,581,361; and U.S. Pat. No. 4,778,892 for further details, said references incorporated herein for such purposes). The effects of the selected compounds in terms of ability to reduce the rate of the induced VT or to eliminate the same (abolish the VT completely or at least not allow it to be sustained) is then evaluated and compared to lidocaine or to 7-benzyl-3-thia-7-azabicyclo[3.3.1]nonane hydroperchlorate (48)."}, "[2]": {"assay": "Tissue distribution of radioactivity after oral administration of (48)*", "design": "species or system rats", "settings": "rat, in vivo", "text": "In order to determine the potential viability of members of the above family to act as useful antiarrhythmic agents in vivo, a pharmacokinetic and metabolism study was undertaken using a representative example from the above compounds. The techniques employed in these preliminary studies are well documented, but a summary of pharmacokinetic procedures can be found in: J. D. Baggot, \"Principals of Drug Disposition in Domestic Animals: The Basis of Veterinary Clinical Pharmacology\", W. B. Saunders Company, Philadelphia, 1977. These studies were conducted using ^14 C-labelled (48)* [Prepared by the method of Zisman, Berlin, et al. J. Labelled Compounds and Radiopharmaceuticals, In Press (1989)] in Sprague-Dawley rats.\nTissue distribution of (48)* was studied by measuring the radioactivity in selected organs collected from rats sacrificed at several time intervals after oral administration. […] These observations correlate well with the high volume of distribution calculated from pharmacokinetic data."}, "[3]": {"design": "species or system rats", "settings": "rat, in vivo, po"}},
  "data": [
    {"molecule": "CC(C)N1CC2CC(CN(C(=O)c3ccccc3)C2)C1", "note": "[(1), 3-Benzoyl-7-isopropyl-3,7-diazabicyclo[3.3.1]nonane Hydroperchlorate]", "values": [
      {"measurement": "ability to reduce the rate of the induced VT or to eliminate the same", "setting": "[1]", "result": "extremely effective in eliminating the induced VT"}
    ]},
    {"molecule": "COc1ccc(C(=O)N2CC3CC(C2)CN(C(C)C)C3)cc1OC.[O-][Cl+3]([O-])([O-])O", "note": "[(3), 3-(3',4'-Dimethoxybenzoyl)-7-isopropyl-3,7-diazabicyclo[3.3.1]nonane Hydroperchlorate]", "values": [
      {"measurement": "ability to reduce the rate of the induced VT or to eliminate the same", "setting": "[1]", "result": "extremely effective in eliminating the induced VT"}
    ]},
    {"molecule": "CC(C)N1CC2CC(CN(Cc3ccccc3)C2)C1", "note": "[(5), 7-Benzyl-3-isopropyl-3,7-diazabicyclo[3.3.1]nonane Hydroperchlorate]", "values": [
      {"measurement": "ability to reduce the rate of the induced VT or to eliminate the same", "setting": "[1]", "result": "extremely effective in eliminating the induced VT"}
    ]},
    {"molecule": "CC(C)N1CC2CSCC(C2)C1", "note": "[(8), 7-Isopropyl-3-thia-7-azabicyclo[3.3.1]nonane Hydroperchlorate]", "values": [
      {"measurement": "Effect on SVT", "setting": "[1]; 3mg/kg", "result": "No action"},
      {"measurement": "ability to reduce the rate of the induced VT or to eliminate the same", "setting": "[1]", "result": "exhibited little effect on the dog model"},
      {"measurement": "Effect on SVT", "setting": "[1]; 6mg/kg", "result": "No action"}
    ]},
    {"molecule": "[O-][S+]1CC2CC(CN(Cc3ccccc3)C2)C1", "note": "(stereo not drawn) [(10), 7-Benzyl-3-thia-7-azabicyclo[3.3.1]nonane 3-Oxide Hydroperchlorate]", "values": [
      {"measurement": "Effect on SVT", "setting": "[1]; 3mg/kg", "result": "Reduced rate of VT"},
      {"measurement": "ability to reduce the rate of the induced VT or to eliminate the same", "setting": "[1]", "result": "reduced the rates of the induced VT but did not abolish them"},
      {"measurement": "Effect on SVT", "setting": "[1]; 6mg/kg", "result": "Reduced rate of VT"}
    ]},
    {"molecule": "COC1(OC)C2CSCC1CN(Cc1ccccc1)C2", "note": "[(11), 7-Benzyl-9,9-dimethoxy-3-thia-7-azabicyclo[3.3.1]-nonane Hydroperchlorate]", "values": [
      {"measurement": "ability to reduce the rate of the induced VT or to eliminate the same", "setting": "[1]", "result": "extremely effective in eliminating the induced VT"}
    ]},
    {"molecule": "COC1(OC)C2CN(Cc3ccccc3)CC1CN(Cc1ccccc1)C2", "note": "[(12), 3,7-Dibenzyl-9,9-dimethoxy-3,7-diazabicyclo[3.3.1]nonane Hydroperchlorate]", "values": [
      {"measurement": "Effect on SVT", "setting": "[1]; 3mg/kg", "result": "Reduced"},
      {"measurement": "ability to reduce the rate of the induced VT or to eliminate the same", "setting": "[1]", "result": "reduced the rates of the induced VT but did not abolish them"},
      {"measurement": "Effect on SVT", "setting": "[1]; 6mg/kg", "result": "Reduced"}
    ]},
    {"molecule": "O=C(c1ccccc1)N1CC2CSCC(C2)C1", "note": "[(15)]", "values": [
      {"measurement": "Effect on SVT", "setting": "[1]; 3mg/kg", "result": "Reduced"},
      {"measurement": "ability to reduce the rate of the induced VT or to eliminate the same", "setting": "[1]", "result": "reduced the rates of the induced VT but did not abolish them"},
      {"measurement": "Effect on SVT", "setting": "[1]; 6mg/kg", "result": "Reduced"}
    ]},
    {"molecule": "O=C1C2CC(CN(Cc3ccccc3)C2)CN1Cc1ccccc1", "note": "(stereo not drawn) [(17), 3,7-Dibenzyl-3,7-diazabicyclo[3.3.1]nonan-2-one]", "values": [
      {"measurement": "Effect on SVT", "setting": "[1]; 3mg/kg", "result": "Reduced"},
      {"measurement": "ability to reduce the rate of the induced VT or to eliminate the same", "setting": "[1]", "result": "reduced the rates of the induced VT but did not abolish them"},
      {"measurement": "Effect on SVT", "setting": "[1]; 6mg/kg", "result": "Reduced"}
    ]},
    {"molecule": "c1ccc(CN2CC3CSCC(C3)C2)cc1", "note": "[(48)]", "values": [
      {"measurement": "radioactivity in liver and kidney", "setting": "[2]", "result": "High levels of radioactivity"},
      {"measurement": "radioactivity in the heart", "setting": "[2]", "result": "Reasonably high concentrations of radioactivity"},
      {"measurement": "excretion in urine", "setting": "[3]", "result": "most of the dose was excreted in the form of metabolites"}
    ]},
    {"molecule": "Ethyl 3-Benzyl-3-azabicyclo[3.3.1]nonane-7-(endo)-carboxylate Hydroperchlorate [(13)]", "values": [
      {"measurement": "ability to reduce the rate of the induced VT or to eliminate the same", "setting": "[1]", "result": "extremely effective in eliminating the induced VT"}
    ]},
    {"molecule": "Ethyl 3-Benzyl-9,9-(1,3-dithiolan-2-yl)-3-azabicyclo[3.3.1]nonane-7-(endo)-carboxylate Hydroperchlorate [(14)]", "values": [
      {"measurement": "ability to reduce the rate of the induced VT or to eliminate the same", "setting": "[1]", "result": "extremely effective in eliminating the induced VT"}
    ]}
  ]
}
